ChEMBL document CHEMBL2346546, “Hit identification of novel heparanase inhibitors by structure- and ligand-based approaches” (Bioorg Med Chem, 2013)
Active and inactive are the calls of the source. The rule behind the calls is not given here.

What was measured:
Heparanase [1] = target: T1, Heparanase (Homo sapiens, UniProt Q9Y251); assay: Binding affinity to recombinant heparanase catalytic stie (unknown origin) expressed in Escherichia coli BL21 (DE3) by surface plasmon resonance assay
T1 sequence (Q9Y251 whole entry): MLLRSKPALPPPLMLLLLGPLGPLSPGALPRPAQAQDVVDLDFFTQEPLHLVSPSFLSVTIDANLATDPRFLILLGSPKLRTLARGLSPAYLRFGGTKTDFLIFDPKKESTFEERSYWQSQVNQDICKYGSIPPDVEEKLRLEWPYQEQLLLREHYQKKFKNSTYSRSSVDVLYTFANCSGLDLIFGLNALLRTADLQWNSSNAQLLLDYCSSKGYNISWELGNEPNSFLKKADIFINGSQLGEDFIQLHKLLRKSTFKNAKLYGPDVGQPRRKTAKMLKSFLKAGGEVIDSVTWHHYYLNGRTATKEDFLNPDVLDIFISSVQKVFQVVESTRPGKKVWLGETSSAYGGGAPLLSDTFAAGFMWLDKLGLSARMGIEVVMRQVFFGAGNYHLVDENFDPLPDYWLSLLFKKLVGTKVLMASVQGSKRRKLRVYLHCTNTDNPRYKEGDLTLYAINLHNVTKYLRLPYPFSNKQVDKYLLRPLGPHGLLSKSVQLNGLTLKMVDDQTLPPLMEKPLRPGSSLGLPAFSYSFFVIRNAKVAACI

[2] = target: T2, Heparanase (Homo sapiens) (UniProt Q9Y251); assay: Binding affinity to recombinant heparanase catalytic stie (unknown origin) expressed in Escherichia coli BL21 (DE3) by NMR analysis
T2 sequence (whole entry): T1 sequence (Q9Y251 whole entry)

Heparanase [3] = target: T1, Heparanase; assay: Inhibition of recombinant heparanase catalytic stie (unknown origin) expressed in Escherichia coli BL21 (DE3)

SMILES | Kd (Heparanase [1]) [µM] | Activity [2] | IC50 (Heparanase [3]) [µM]
CN(C)CCNCc1cc(NC(=O)CN2CCCCC2)cc(Nc2ccnc3cc(Cl)ccc23)c1 | 639 | – | –
COc1ccc(CCN2CCC(Nc3nc4ccccc4n3Cc3ccc(F)cc3)CC2)cc1 [ASTEMIZOLE] | > 1000 | Active | –
CN(C)CCCNC(=O)c1cc(NC(=O)CN2CCCCC2)cc(Nc2ccnc3cc(Cl)ccc23)c1 | > 1000 | – | –
COc1ccc([C@@H]2CC(=O)c3c(O)cc(O[C@@H]4O[C@H](CO[C@@H]5O[C@@H](C)[C@H](O)[C@@H](O)[C@H]5O)[C@@H](O)[C@H](O)[C@H]4O)cc3O2)cc1O [HESPERIDIN] | > 1000 | Active | –
CCCCCCCCCCCCCCCC(=O)C1=C(O)[C@@H](CO)OC1=O | – | – | 17
O=C(CN1CCCCC1)Nc1cc(Nc2ccnc3cc(Cl)ccc23)cc(C(=O)N2CCOCC2)c1 | > 1000 | – | –
O=C(CN1CCCCC1)Nc1cc(CN2CCC(O)CC2)cc(Nc2ccnc3cc(Cl)ccc23)c1 | 1000 | – | –
C[C@@H]1O[C@@H](O[C@H]2[C@H](Oc3cc(O)c4c(c3)O[C@H](c3ccc(O)cc3)CC4=O)O[C@H](CO)[C@@H](O)[C@@H]2O)[C@H](O)[C@H](O)[C@H]1O [NARINGIN] | > 1000 | Active | –
CCN(CC)Cc1cc(Nc2ccnc3cc(Cl)ccc23)ccc1N1CCOCC1 | 239 | – | –
CN1C[C@H](CNC(=O)OCc2ccccc2)C[C@@H]2c3cccc4c3c(cn4C)C[C@H]21 [METERGOLINE] | > 1000 | Active | –
CCCCCCCCCCCCCCCC(=O)C1=C(OC)[C@@H](CO)OC1=O | – | – | > 100
O=C(O)c1ccccc1C(=O)c1ccc(Oc2ccccc2)c([N+](=O)[O-])c1 | – | – | 1
CCN(CC)Cc1cc(Nc2ccnc3cc(Cl)ccc23)ccc1O | 52.6 | Active | –
COc1cc(N)c(Cl)cc1C(=O)NC1CCN(CCCOc2ccc(F)cc2)CC1OC (stereo unspecified) [CISAPRIDE] | > 1000 | Active | –
CCN(CC)Cc1cc(Nc2ccnc3cc(Cl)ccc23)ccc1Br | > 1000 | – | –
CC(CCc1ccccc1)NCC(O)c1ccc(O)c(C(N)=O)c1 (stereo unspecified) [LABETALOL] | 1000 | Active | –
Clc1ccc2c(Nc3ccc(-c4ccco4)c(CN4CCCC4)c3)ccnc2c1 | > 1000 | – | –
CCOc1ccc(Nc2ccnc3cc(Cl)ccc23)cc1CN1CCCC1 | 169 | – | –
CCCCCCCCCCCCCCCc1cc(O[C@@H]2OC(C(=O)O)[C@H](O)[C@H](O)C2O)cc(O)c1C(=O)Oc1cc(C)c(C(=O)O)c(O)c1 (stereo partly specified) | – | – | 10
